This note sets out measurements from PMC4405350, “From Broad-Spectrum Biocides to Quorum Sensing Disruptors and Mussel Repellents: Antifouling Profile of Alkyl Triphenylphosphonium Salts” (PLoS ONE, 2015).

pIC50: −log10 of the molar value.

What all share (assay type): cell-based
One test concerns Alternaria sp. The test is described as follows: Marine-derived fungi growth inhibition (OD405). The note with it: Alternaria, 120 h; growth inhibition, 5 days, 26 °C; read-out: IC50 Alternaria sp. The protocol: (§1) All the biological assays were run by triplicate. […] For the active products, serial dilutions were performed to calculate the half-maximal inhibitory concentrations (IC50) or the minimal inhibitory concentrations (MIC). Unless otherwise stated, the test concentrations were 100, 50, 25, 10, 5, 2.5, 1, 0.5 and 0.1 μM. Dose-response curves were adjusted with GraphPad Prism 5 software using a four-parameter non-linear regression model.
(§2) Three strains of marine-derived fungi were kindly provided by Dr. Á. Trigos (University of Veracruz, Mexico). The strains were isolated from reef organisms collected from the Veracruz Reef System and identified as Aspergillus sp., Fusarium sp. and Alternaria sp..
(§3) Fungal strains were cultured in Potato-Dextrose Agar (PDA) supplemented with filtered seawater (FSW) (50% v/v) at 26 °C for 5 days prior to experiments. […] Briefly, fungal inocula were prepared by addition of 5 ml of sterile saline solution to the cultures. Gently swabbing released conidia. […] The plates were incubated for 5 days at 26 °C. The calculation of the half-maximal inhibitory concentrations (IC50) was performed using OD405 as endpoint.

The subject of another test is Aspergillus sp. The test is described as follows: Marine-derived fungi growth inhibition (OD405). The following applies: Aspergillus, 120 h; growth inhibition, 5 days, 26 °C; read-out: IC50 Aspergillus sp. The protocol:
as §1, §2, §3

For another test, the system named is Cylindrotheca sp. Briefly: Benthic diatom growth inhibition (chlorophyll-a). The following applies: 120 h; growth, 5 days, chlorophyll-a; read-out: IC50 Cylindrotheca sp. The method, then: as §1
(§4) Five strains of benthic diatoms, Nitszchia sp. […] The Nitzschia and Navicula strains were purchased from the Spanish Bank of Algae (Marine Biotechnology Center, University of Las Palmas de Gran Canaria). The other three strains were kindly provided by Dr. G. Courtois (University of Las Palmas de Gran Canaria). Diatoms were cultured at 19±1 °C in Erlenmeyer flaks (250 ml) containing 150 ml of Guillard’s F/2 medium, and subjected to a photoperiod of 18:6. Tests were run in 48-well plates. Inocula were prepared by adjusting diatom concentration to 2–4 × 10^6 cells ml^-1 using a Neubauer chamber. Test products were dissolved in F/2 medium (500 μl) to which diatom inocula (500 μl) were added. Thus, the final assay volume was 1 ml and the starting cell densities were ca. 1–2 x 10^6 diatoms ml^-1. Plates were incubated under the abovementioned conditions for 5 days and then chlorophyll-a (Chla) was quantified.
(§5) In order to extract Chla, the content of each well was transferred to a microcentrifuge tube and centrifuged at 10,000 rpm for 10 min. The supernatants were discarded and 200 μl of DMSO were added to the pellets. The tubes were incubated at 65 °C for 2 h in total darkness and vortexed every 30 min. Then, the content of each tube was transferred to a 96-well plate and the amount of Chla was determined spectrophotometrically. Path length correction factor for the DMSO extracts was determined.

Test [1] deals with Phaeodactylum tricornutum. Briefly: Benthic diatom growth inhibition (chlorophyll-a). The note with it: Phaeodactylum tricornutum, 120 h; growth, 5 days, chlorophyll-a; read-out: IC50 P. tricornutum. The method, then: as §1, §4, §5
Another test relates to Amphora sp. Briefly: Benthic diatom growth inhibition (chlorophyll-a). The note with it: 120 h; growth, 5 days, chlorophyll-a; read-out: IC50 Amphora sp. The method, then:
as §1, §4, §5

Test [2] concerns Navicula cf. salinicola BEA 0055. Briefly: Benthic diatom growth inhibition (chlorophyll-a). The note with it: 120 h; growth, 5 days, chlorophyll-a; read-out: IC50 Navicula cf. salinicola. The protocol: as §1, §4, §5
The subject of another test is Nitzschia sp. The test is described as follows: Benthic diatom growth inhibition (chlorophyll-a). The note with it: 120 h; growth, 5 days, chlorophyll-a; read-out: IC50 Nitzschia sp. The protocol:
as §1, §4, §5

Test [3] relates to Cellulophaga lytica CECT 5014. The test is described as follows: Marine bacteria growth inhibition (broth microdilution, OD625). The note with it: Cellulophaga lytica, CECT5014; growth inhibition, 24 h, 30 °C, three replicates; read-out: IC50 C. lytica. The protocol: as §1
(§6) Growth inhibition was assessed in Marine Broth (Conda) according to CLSI guidelines for broth microdilution susceptibility testing. The incubation time was 24 h and the incubation temperature was 30 °C.

Test [4] has as its system Vibrio anguillarum CECT 4347. Described as above. The following applies: Vibrio anguillarum, CECT4347; growth inhibition, 24 h, 30 °C, three replicates; read-out: IC50 V. anguillarum. The protocol: as §1, §6
For test [5], the system named is Shewanella algae CECT 5021. The description is as above. The following applies: Shewanella algae, CECT5021; growth inhibition, 24 h, 30 °C, three replicates; read-out: IC50 S. algae. The protocol:
as §1, §6

The test system of test [6] is Vibrio alginolyticus CECT 521. The test is described as above. The note with it: Vibrio alginolyticus, CECT521; growth inhibition, 24 h, 30 °C, three replicates; read-out: IC50 V. alginolyticus. The protocol:
as §1, §6

Test [7] deals with Pseudoalteromonas atlantica CECT 579. Described as above. The note with it: Pseudoalteromonas atlantica, CECT579; growth inhibition, 24 h, 30 °C, three replicates; read-out: IC50 P. atlantica. The protocol:
as §1, §6

In another test the test system is Cobetia marina CECT 4278. The test is described as above. The following applies: Cobetia marina, CECT4278; growth inhibition, 24 h, 30 °C, three replicates; read-out: IC50 C. marina. The protocol:
as §1, §6

The subject of test [8] is Gayralia oxysperma spores. The test is described as follows: Macroalgal spore germination inhibition. The note with it: 6 days, 19±1 °C. The method, then: as §1
To evaluate the effect of the phosphonium salts on the germination of macroalgal spores, Gayralia oxysperma (Kützing) K.L.Vinogradova was selected as model organism. G. oxysperma (Ulotrichales, Chlorophyta) is a cosmopolitan member of the Ulvophyceae. Unlike Ulva species, which produce biflagellate male and female gametes, as well as quadriflagellate spores, G. oxysperma only produces biflagellate spores. This is an advantage as bioassays can be conducted straightforwardly without the need to distinguish between gamete-producing and zoospore-producing plants. […] Fresh fertile fragments were selected and placed in Petri dishes. Spores were then released in Von Stosch Solution (VSS) by the osmotic method. Bioassays were conducted in flat-bottom 96-well plates as described by Chambers and co-workers, with slight modifications. Each well was filled with 50 μl of the appropriate dilution of the products in VSS to which 50 μl of spore inoculum (ca. 2 x 10^5 spores ml^-1) were added. Plates were incubated at 19±1 °C for 6 days. After the incubation time, the bottom of each well was examined for the presence of germinated spores with an inverted microscope. A spore was considered as germinated when the germ tube was visible. The MIC was recorded as the lowest concentration inhibiting spore germination.

Regarding `BrCCCC[P+](c1ccccc1)(c1ccccc1)c1ccccc1` [Compound 4], the pIC50 (in the test with Alternaria sp.; in the test on Aspergillus sp.; with Cylindrotheca sp.; in test [1]; in the test with Amphora sp.; in [2]) was less than 4.00 throughout. The pIC50 (in general, the negative decadic logarithm of the IC50, by convention in mol/L) in the test with Nitzschia sp. is less than 4.00; in test [3], less than 4.00; in test [4], less than 4.00; in [5], less than 4.00; in [6], less than 4.00; in [7], 4.58. Also, the pIC50 with Cobetia marina CECT 4278 was less than 4.00. In addition, the “MIC G. oxysperma (lowest concentration inhibiting spore germination)” value in test [8] is more than 100 µM.

For the molecule `CCCCCCCCCCC[P+](c1ccccc1)(c1ccccc1)c1ccccc1` [Compound 11], the pIC50 was 5.46 in the test on Alternaria sp.; 5.29 in the test with Aspergillus sp.; 6.00 in the test on Cylindrotheca sp.; 5.77 in test [1]; 5.48 with Amphora sp.; 5.82 in test [2]. The pIC50 was 5.64 in the test with Nitzschia sp.; 5.96 in test [3]; 4.77 in test [4]; 5.27 in test [5]; 4.48 in test [6]; 5.52 in test [7]. Also, the pIC50 in the test on Cobetia marina CECT 4278 was 5.21. The “MIC G. oxysperma (lowest concentration inhibiting spore germination)” value in test [8] worked out at 50 µM.

As for `CCCCCCCCC[P+](c1ccccc1)(c1ccccc1)c1ccccc1` [Compound 9], the pIC50 is 5.13 with Alternaria sp.; 5.00 with Aspergillus sp.; 5.72 in the test with Cylindrotheca sp.; 4.95 in test [1]; 5.21 in the test with Amphora sp.; 5.57 in [2]. In addition, the pIC50 is 5.44 in the test on Nitzschia sp.; 5.59 in test [3]; 4.06 in [4]; 5.07 in [5]; 4.16 in [6]; 5.18 in test [7]. In the test on Cobetia marina CECT 4278, the pIC50 was 4.68. Besides, the “MIC G. oxysperma (lowest concentration inhibiting spore germination)” value in test [8] is 50 µM.

Consider `CCCCCCCCCCCCCC[P+](c1ccccc1)(c1ccccc1)c1ccccc1` [Compound 14], for which the pIC50 is 6.15 with Alternaria sp.; 5.28 in the test on Aspergillus sp.; 5.35 in the test on Cylindrotheca sp.; 5.82 in test [1]; 5.68 in the test with Amphora sp.; 5.92 in test [2]. In addition, the pIC50 with Nitzschia sp. was 5.46; in test [3] it was 5.70; in [4], 5.80; in test [5] it was 5.92; in test [6] it was 4.90; in test [7] it was 5.64. In addition, the pIC50 with Cobetia marina CECT 4278 was 5.28. Moreover, in test [8], the “MIC G. oxysperma (lowest concentration inhibiting spore germination)” value was 50 µM.

For `BrC(Br)[P+](c1ccccc1)(c1ccccc1)c1ccccc1` [Compound 1], the pIC50 in the test on Alternaria sp. was less than 4.00; with Aspergillus sp., less than 4.00; with Cylindrotheca sp., 5.01; in test [1], 4.77; with Amphora sp. it was 4.71; in test [2] it was 4.97. Besides, the pIC50 in the test with Nitzschia sp. was 4.73; in test [3], less than 4.00; in test [4] it was less than 4.00; in test [5], less than 4.00; in [6], less than 4.00; in test [7], less than 4.00. Also, the pIC50 in the test with Cobetia marina CECT 4278 was less than 4.00. For the same molecule, the “MIC G. oxysperma (lowest concentration inhibiting spore germination)” value in [8] was found to be 100 µM.

As for `COC(=O)CCC[P+](c1ccccc1)(c1ccccc1)c1ccccc1` [Compound 2], the pIC50 is less than 4.00 in the test with Alternaria sp.; less than 4.00 in the test with Aspergillus sp.; 4.63 in the test with Cylindrotheca sp.; less than 4.00 in test [1]; 4.36 in the test with Amphora sp.; 4.30 in [2]. Besides, the pIC50 was 4.40 with Nitzschia sp.; less than 4.00 in test [3]; less than 4.00 in test [4]; less than 4.00 in test [5]; less than 4.00 in [6]; less than 4.00 in test [7]. The negative logarithm of the IC50 (pIC50) with Cobetia marina CECT 4278 is less than 4.00. Besides, the “MIC G. oxysperma (lowest concentration inhibiting spore germination)” value in [8] was more than 100 µM.

For `c1ccc([P+](CCCCCCCCCCCC[P+](c2ccccc2)(c2ccccc2)c2ccccc2)(c2ccccc2)c2ccccc2)cc1` [Compound 20], the pIC50 is 6.52 with Alternaria sp.; 6.22 in the test with Aspergillus sp.; 5.89 in the test with Cylindrotheca sp.; 6.00 in test [1]; 5.80 in the test with Amphora sp.; 6.22 in test [2]. The pIC50 was 5.70 in the test on Nitzschia sp.; 5.96 in [3]; 5.10 in test [4]; 5.66 in test [5]; 4.03 in test [6]; 6.10 in [7]. The pIC50 in the test on Cobetia marina CECT 4278 is 5.14. The “MIC G. oxysperma (lowest concentration inhibiting spore germination)” value in test [8] amounted to 5 µM.

With `CCCCN[P+](c1ccccc1)(c1ccccc1)c1ccccc1` [Compound 5], the pIC50 with Alternaria sp. was less than 4.00; in the test on Aspergillus sp. it was less than 4.00; in the test with Cylindrotheca sp., 4.90; in test [1], 4.09; with Amphora sp., 4.37; in test [2], 5.09. Further, the pIC50 in the test on Nitzschia sp. was 4.92; in test [3], 4.38; in [4], less than 4.00; in test [5] it was less than 4.00; in test [6] it was less than 4.00; in test [7] it was less than 4.00. Besides, the pIC50 with Cobetia marina CECT 4278 was less than 4.00. Moreover, the “MIC G. oxysperma (lowest concentration inhibiting spore germination)” value in [8] turned out to be 100 µM.

For `O=C(O)CCCCCCCCCC[P+](c1ccccc1)(c1ccccc1)c1ccccc1` [Compound 19], the pIC50 with Alternaria sp. was less than 4.00; in the test with Aspergillus sp., less than 4.00; in the test on Cylindrotheca sp. it was 4.62; in test [1] it was less than 4.00; with Amphora sp. it was 4.12; in [2] it was less than 4.00. For the same molecule, the pIC50 (with Nitzschia sp.; in [3]; in test [4]; in test [5]; in [6]; in test [7]) was less than 4.00 throughout. Moreover, the pIC50 in the test on Cobetia marina CECT 4278 was less than 4.00. In addition, the “MIC G. oxysperma (lowest concentration inhibiting spore germination)” value in [8] was more than 100 µM.
